Source: patent US20240216332A1, “METHOD AND PHARMACEUTICAL COMPOSITION FOR TREATING MYOPIA” (GRAND PHARMA (CHINA) CO., LTD., priority 2021, published 2024)

Columns and labels:
[1] = system: form deprivation myopia guinea pigs; assay: Sorbinil and Zopolrestat in form deprivation myopia model, Example 9; settings: FD, Sorbinil 100 μM, Zopolrestat 1 mM; for diopter or axial length parameter versus the vehicle group: each test time point (1-week, 2-week), FIG. 13; for corneal curvature, anterior chamber depth and lens thickness: FIG. 14
[2] = system: form deprivation myopia guinea pigs; assay: m-Hydroxy methylaniline in form deprivation myopia model, Example 10; assay type: in vivo, guinea pig; settings: FD; for effect of preventing or treating myopia: subconjunctival injection 100 μl once daily for 1 week, atropine 0.1%
Description: The efficacy was evaluated using the guinea pig in form deprivation myopia model described in this application. All subjects were measured for diopter and axial length. […] Diopter and axis length parameters were measured at the beginning and after the end of the efficacy experiment.

[3] = system: form deprivation myopia guinea pigs; assay: Direct eye drop administration in form deprivation myopia model, Example 7; settings: for inhibition rate on myopia: direct eye drop 25 μl twice per day, 0.5% bendazac lysine (self-made); for elongation of axial length compared with the normal saline group: eye drop twice per day for 2 weeks, statistical difference
Source text: All efficacy experiments above were repeated at least twice.

[4] = system: form deprivation myopia guinea pigs; assay: Lysine alone and bendazac alone in form deprivation myopia model, Example 8; assay type: in vivo, guinea pig; settings: FD; for progress of myopia (diopter becoming negative, vitreous chamber depth, axial length): subconjunctival injection 100 μl once daily for 2 weeks, equimolar (11.669 mM) preparations, FIG. 8; for ocular abnormalities / pupil, corneal curvature, anterior chamber depth and lens thickness: subconjunctival injection once daily for 2 weeks; for pupil, corneal curvature, anterior chamber depth and lens thickness: FIGS. 10 and 11; for myopia inhibition rate compared with DMSO vehicle control group: bendazac 3.3 mg/ml (11.669 mM) subconjunctival injection 100 μl once daily
[5] = system: form deprivation myopia (FDM) guinea pigs; assay: Dose-response of bendazac lysine (0.01%-0.5%) in form deprivation myopia model, Example 5
Source text: To be more intuitive, percentage are converted to milligram units when plotting.

[6] = system: form deprivation myopia (FDM) guinea pigs; assay: Choroidal thickness (OCT) in FDM model, Example 6; assay type: in vivo, guinea pig
Description: (§1) The lenses were purchased from Wenzhou Focusee Technology Co. Ltd. The specific parameters were: center degree 4D, base curve 16 mm, and diameter 11.8 mm. The lenses were fixed in front of the right eye (experimental eye) of the guinea pig and the left eye (fellow eye) was left untreated. […] The choroidal thickness of all eyes in the two myopia models was detected by Spectralis HRA+OCT (Heidelberg Engineering, Heidelberg, Germany) at 30-60 min after the last administration. […] The statistical method was an independent sample T-test.

[7] = system: guinea pigs with lens induced myopia; assay: Lens induced (LI, -4D lens) myopia model, peribulbar injection, Example 3; assay type: in vivo, guinea pig; settings: bendazac lysine 0.5 mg/day peribulbar injection
[8] = system: guinea pigs with form deprivation myopia; assay: Form deprivation (FD) myopia model, peribulbar injection, Example 3; settings: for induced myopia (diopter) / myopia inhibition rate compared with normal saline group: peribulbar injection once daily (bendazac lysine 0.5 mg/day; atropine 0.1%, 100 μL)
[9] = system: lens induced myopia (LIM) guinea pigs; assay: Choroidal thickness (OCT) in LIM model, Example 6; assay type: in vivo, guinea pig; settings: 0.5% bendazac lysine (BDL(S)) subconjunctival injection once daily for 1 week, 30-60 min after last administration
Description: as §1

[10] = m-hydroxy methylaniline 5 mM, FIG. 15
[11] = FD, 0.5% bendazac lysine, 0.1% atropine
[12] = LI (-4D lens), 1-week of administration

O=C1NC(=O)[C@@]2(CCOc3ccc(F)cc32)N1 [Sorbinil]
diopter or axial length parameter versus the vehicle group [1]: no significant difference
therapeutic effect on myopia ([1]; subconjunctival injection 100 μl once daily for 2 weeks): no therapeutic effect on myopia
corneal curvature, anterior chamber depth and lens thickness [1]: no effect

O=C(O)Cc1nn(Cc2nc3cc(C(F)(F)F)ccc3s2)c(=O)c2ccccc12 [Zopolrestat]
diopter or axial length parameter versus the vehicle group [1]: no significant difference
corneal curvature, anterior chamber depth and lens thickness [1]: no effect

CN1[C@@H]2CC[C@H]1C[C@@H](OC(=O)C(CO)c1ccccc1)C2 (some centres unmarked) [atropine]
anterior chamber depth and lens thickness ([2]; 0.1% atropine, FIG. 15): unaffected
pupil ([2]; 0.1% atropine, all animals tested in this group): pupil dilation
effect of preventing or treating myopia [2, 10]: normal effect for treating myopia
therapeutic effect (diopter or axial length parameter) ([3]; FD, 0.01% atropine eye drops, same administration conditions): No therapeutic effect was observed
inhibition rate on myopia ([3]; FD, 1-week, 0.1% atropine): 28.1%
inhibition rate on myopia ([3]; FD, 2-week, 0.1% atropine): 36.9%
elongation of axial length compared with the normal saline group [3, 11]: significantly inhibit elongation of axial length
ocular adverse reactions during the administration ([3]; FD, eye drop twice per day, 0.5% bendazac lysine, 0.1% atropine): pupil dilation adverse reactions
corneal curvature, anterior chamber and lens ([3]; FD, eye drop twice per day, 0.5% bendazac lysine, 0.1% atropine, FIG. 7): not affected

O=C(O)COc1nn(Cc2ccccc2)c2ccccc12 [bendazac lysine, L-lysine (1-benzyl-1H-indazol-3-yloxy) acetate]
progress of myopia (diopter becoming negative, vitreous chamber depth, axial length) [4]: effectively inhibited the progress of diopter becoming negative
ocular abnormalities [4]: no obvious ocular abnormalities
pupil, corneal curvature, anterior chamber depth and lens thickness [4]: not affected
effect in terms of the parameter diopter ([5]; FDM, 0.01% bendazac lysine, 2-week, no statistical difference): slightly stronger than the negative control group
progress of myopia, dose-response ([5]; FDM, 0.01%, 0.05%, 0.1%, 0.5% in normal saline, subconjunctival injection 100 μl once daily for 2 weeks): dose-dependently retarded the progress of myopia
therapeutic effect on myopia (progress of diopter becoming negative) ([5]; FDM, 0.05% and 0.1% bendazac lysine preparations): significant therapeutic effect on myopia
increase in vitreous chamber depth (VCD) and elongation of axial length (AL) ([5]; FDM, 0.05%, 0.1% and 0.5% bendazac lysine, FIG. 3): inhibit the increase in vitreous chamber depth (VCD) and the elongation of axial length (AL)
therapeutic effect on myopia in terms of diopter, compared with 0.1% atropine ([5]; FDM, 0.5% bendazac lysine, 1-week after administration, no statistical difference): better therapeutic effect on myopia than 0.1% atropine
anterior chamber depth, lens thickness and pupil ([5]; guinea pig, in vivo): not affected
ocular irritation and ocular abnormalities during administration ([5]; guinea pig, in vivo): No ocular irritation and any ocular abnormalities were observed
corneal curvature (RCC), anterior chamber depth (ACD), lens thickness (LT) ([6]; FDM and LIM, 0.5% BDL(S)): unaffected
mean difference in choroidal thickness between the experimental eye and the fellow eye ([6]; FDM, 0.5% bendazac lysine eye drops (BDL(S)) subconjunctival injection 100 μl once daily for 2 weeks, 30-60 min after last administration): −9.20 μm
induced myopia (diopter) [7, 12]: −3.49±1.15 D
myopia inhibition rate compared to the normal saline group [7, 12]: 21.0%
elongation of the vitreous chamber depth and the axial length ([7]; LI, 1 week): inhibited
corneal curvature (RCC), anterior chamber depth (ACD), lens thickness (LT) ([8]; FD and LI groups, 0.5 mg/day peribulbar injection, FIG. 2): not affected
induced myopia (diopter) ([8]; FD, 1-week of administration): −2.15±1.09 D
myopia inhibition rate compared with normal saline group ([8]; FD, 1-week of administration): 42.6%
induced myopia (diopter) ([8]; FD, 2-week of administration): −3.46 D
myopia inhibition rate compared with normal saline group ([8]; FD, 2-week of administration): 43.9%
increase in vitreous chamber depth and axial length ([8]; FD, bendazac lysine 0.5 mg/day peribulbar injection, FIG. 1): inhibited
inhibition rate on myopia ([3]; FD, 1-week, 0.1% atropine): 35.5%
inhibition rate on myopia ([3]; FD, 2-week, 0.1% atropine): 33.9%
elongation of axial length compared with the normal saline group [3, 11]: significantly inhibit elongation of axial length
corneal curvature, anterior chamber and lens ([3]; guinea pig, in vivo): not affected
ocular adverse reactions during the administration ([3]; guinea pig, in vivo): no obvious ocular abnormalities
mean difference in choroidal thickness between the experimental and the fellow eyes [9]: −6.31 μm

O=C(O)COc1nn(Cc2ccccc2)c2ccccc12 [bendazac, α-[(1-benzyl-1H-indazol-3-yl)oxy] acetic acid]
myopia inhibition rate compared with DMSO vehicle control group ([4]; 1-week): 33.4%
mean difference in the choroidal thickness between the experimental eyes and the fellow eyes ([4]; 2-week after administration of bendazac alone, FIG. 12): −8.47 μm
myopia inhibition rate compared with DMSO vehicle control group ([4]; 2-week): 30.1%
elongation of axial length and increase of vitreous chamber depth compared with the DMSO vehicle group ([4]; bendazac alone, statistical difference, FIG. 9): significantly inhibited elongation of axial length and reduced the increase of vitreous chamber depth

NCCCC[C@H](N)C(=O)O [lysine]
progress of myopia (diopter becoming negative, vitreous chamber depth, axial length) [4]: no inhibitory effect on the progress of myopia
ocular abnormalities [4]: no obvious ocular abnormalities
pupil, corneal curvature, anterior chamber depth and lens thickness [4]: not affected

m-hydroxy methylaniline
elongation of axial length and increase of vitreous chamber depth ([2]; 1 week, m-hydroxy methylaniline 5 mM): no inhibitory effect on elongation of axial length and no slowing effect on the increase of vitreous chamber depth
effect of preventing or treating myopia [2, 10]: no effect of preventing or treating myopia
